Measurements: ChEMBL document CHEMBL1201862, “PubChem BioAssay data set” (2004)
The source made the active and inactive calls.

How the values were obtained:
[1] = molecular target: T1, Low molecular weight phosphotyrosine protein phosphatase (Homo sapiens, UniProt P24666); format: functional; details: read-out: IC50_Mean;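 further: Dose-response confirmation assay measuring inhibition of LMPTP enzyme activity by fluorescence intensity read-out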
T1 sequence (P24666 whole entry): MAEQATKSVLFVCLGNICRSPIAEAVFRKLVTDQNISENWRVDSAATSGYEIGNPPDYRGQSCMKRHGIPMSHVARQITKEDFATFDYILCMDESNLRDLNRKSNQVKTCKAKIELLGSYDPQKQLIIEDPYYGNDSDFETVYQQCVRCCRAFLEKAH

Escherichia coli = assay: microbe, parasite or virus in culture
[2] = molecular target: DNA (cytosine-5)-methyltransferase 1 (Homo sapiens, UniProt P26358); assay: DNMT1 methyltransferase inhibitors, confirmation, biochemical, fluorescent molecular beacon (AID 602386); format: functional
Sequence of DNA (cytosine-5)-methyltransferase 1 (P26358 whole entry): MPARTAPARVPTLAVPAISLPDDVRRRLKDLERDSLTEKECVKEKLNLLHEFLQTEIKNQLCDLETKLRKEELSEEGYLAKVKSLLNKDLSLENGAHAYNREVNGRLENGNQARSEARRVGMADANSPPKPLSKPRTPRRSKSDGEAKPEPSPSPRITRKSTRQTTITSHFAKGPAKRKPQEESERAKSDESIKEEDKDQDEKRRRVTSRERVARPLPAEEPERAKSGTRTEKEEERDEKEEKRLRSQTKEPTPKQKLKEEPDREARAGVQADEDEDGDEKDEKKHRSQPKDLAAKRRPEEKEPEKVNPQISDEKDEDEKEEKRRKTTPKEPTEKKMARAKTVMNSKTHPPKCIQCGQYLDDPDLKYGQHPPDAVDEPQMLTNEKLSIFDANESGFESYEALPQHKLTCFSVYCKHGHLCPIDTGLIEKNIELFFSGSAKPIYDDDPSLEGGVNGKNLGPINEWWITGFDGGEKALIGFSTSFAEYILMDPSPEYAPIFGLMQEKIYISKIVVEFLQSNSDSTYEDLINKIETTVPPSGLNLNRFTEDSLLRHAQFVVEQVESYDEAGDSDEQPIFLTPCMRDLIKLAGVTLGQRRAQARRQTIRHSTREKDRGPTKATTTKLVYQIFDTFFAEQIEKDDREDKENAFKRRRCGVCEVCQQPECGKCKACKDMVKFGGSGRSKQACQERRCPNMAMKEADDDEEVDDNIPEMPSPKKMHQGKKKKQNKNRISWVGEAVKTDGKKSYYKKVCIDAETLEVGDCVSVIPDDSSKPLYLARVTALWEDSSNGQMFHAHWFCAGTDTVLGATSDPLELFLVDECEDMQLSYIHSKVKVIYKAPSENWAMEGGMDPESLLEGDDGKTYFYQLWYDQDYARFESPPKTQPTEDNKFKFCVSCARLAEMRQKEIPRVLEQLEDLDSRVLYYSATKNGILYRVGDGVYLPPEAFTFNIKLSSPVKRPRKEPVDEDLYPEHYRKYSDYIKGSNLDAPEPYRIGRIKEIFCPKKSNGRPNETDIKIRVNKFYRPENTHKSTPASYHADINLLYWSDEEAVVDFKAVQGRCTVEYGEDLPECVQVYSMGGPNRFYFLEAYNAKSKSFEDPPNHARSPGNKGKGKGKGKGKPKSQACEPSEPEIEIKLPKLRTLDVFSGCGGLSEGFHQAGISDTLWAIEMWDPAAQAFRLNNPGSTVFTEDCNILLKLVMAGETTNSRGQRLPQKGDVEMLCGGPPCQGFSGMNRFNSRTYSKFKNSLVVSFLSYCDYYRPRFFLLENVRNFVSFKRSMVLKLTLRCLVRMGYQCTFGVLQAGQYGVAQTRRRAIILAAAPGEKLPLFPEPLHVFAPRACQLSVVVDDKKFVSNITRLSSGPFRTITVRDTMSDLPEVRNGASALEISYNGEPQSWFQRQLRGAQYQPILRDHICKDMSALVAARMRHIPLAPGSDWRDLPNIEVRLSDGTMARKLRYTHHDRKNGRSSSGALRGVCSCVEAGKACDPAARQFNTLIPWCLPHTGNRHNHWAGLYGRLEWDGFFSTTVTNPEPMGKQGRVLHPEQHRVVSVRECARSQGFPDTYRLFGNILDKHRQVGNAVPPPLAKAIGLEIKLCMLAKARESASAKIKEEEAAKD

Melanocortin receptor 4 = Melanocortin receptor 4 (Homo sapiens, UniProt P32245); format: functional, cell-based;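 further: Cell-based assay with luminescence read-out, confirmatory dose-response testing for agonist activity of biased ligands at MC4R; human U2OS cells with tagged receptor and beta-arrestin; potency of agonists that increase receptor coupling to beta-arrestin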
Sequence of Melanocortin receptor 4 (P32245 whole entry): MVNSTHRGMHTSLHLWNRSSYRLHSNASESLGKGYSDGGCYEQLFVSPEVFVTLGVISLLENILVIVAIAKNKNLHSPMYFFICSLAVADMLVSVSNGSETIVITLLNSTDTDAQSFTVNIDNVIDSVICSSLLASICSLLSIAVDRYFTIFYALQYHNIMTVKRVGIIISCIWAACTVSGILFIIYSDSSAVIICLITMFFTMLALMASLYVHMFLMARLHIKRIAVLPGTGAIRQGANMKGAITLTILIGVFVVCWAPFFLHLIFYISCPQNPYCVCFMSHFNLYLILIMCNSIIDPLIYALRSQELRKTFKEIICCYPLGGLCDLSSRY

Interleukin-8 = molecular target: T2, Interleukin-8 (Homo sapiens, UniProt P10145); assay: Dose Response confirmation of uHTS small molecule hits for cystic fibrosis induced NFkb Inhibitors in a PAF-induced IL8 counterscreen.; format: functional; details: read-out: IC50_Mean
T2 sequence (P10145 whole entry): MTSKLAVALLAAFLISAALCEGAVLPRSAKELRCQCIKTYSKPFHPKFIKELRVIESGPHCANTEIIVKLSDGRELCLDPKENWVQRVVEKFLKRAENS

[3] = molecular target: T3, Heat shock factor protein 1 (Mus musculus, UniProt P38532); assay: inhibition of MG132-induced HSE-luciferase signal, confirmation, cell-based, NIH3T3, luminescence, dose retest (AID 2382); format: functional;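 further: NIH3T3 fibroblasts with HSF1-driven luciferase reporter stressed by proteasome inhibitor MG132; luminescence from HSF1-driven luciferase expression after 8 hours of MG132 stress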
T3 sequence (P38532 whole entry): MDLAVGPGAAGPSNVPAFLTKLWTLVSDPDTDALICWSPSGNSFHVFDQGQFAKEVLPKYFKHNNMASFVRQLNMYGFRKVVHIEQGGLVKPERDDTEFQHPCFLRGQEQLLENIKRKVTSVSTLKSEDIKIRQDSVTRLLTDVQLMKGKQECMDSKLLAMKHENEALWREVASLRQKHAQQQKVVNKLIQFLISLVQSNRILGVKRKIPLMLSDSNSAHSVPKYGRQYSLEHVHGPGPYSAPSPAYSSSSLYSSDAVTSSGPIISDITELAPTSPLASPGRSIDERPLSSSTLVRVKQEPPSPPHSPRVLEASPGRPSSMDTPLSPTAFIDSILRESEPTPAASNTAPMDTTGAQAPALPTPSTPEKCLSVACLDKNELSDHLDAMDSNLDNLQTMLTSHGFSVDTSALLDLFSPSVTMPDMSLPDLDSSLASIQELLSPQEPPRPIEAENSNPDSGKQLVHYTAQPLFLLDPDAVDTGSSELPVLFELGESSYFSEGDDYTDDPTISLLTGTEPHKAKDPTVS

H9c2 = assay: cells; format: functional, cell-based; details: Rattus norvegicus, H9c2, Myocardium;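 further: confirmatory concentration-response retest of ultra-high-throughput screening hits for modulation of myocardial damage; cell death induced by hydrogen peroxide oxidative stress; compound pretreatment for 60 min then peroxide exposure for 2 h; potency is for protecting the cells against peroxide damage rather than for killing them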
[4] = Late stage assay provider results from the probe development effort to identify inhibitors of the Plasmodium falciparum M17 Leucine Aminopeptidase (M17LAP): radiolabel-based cell-based dose response assay to identify compounds that inhibit P. falciparum growth in RBCs Set 2.; format: functional
[5] = molecular target: T4, Apoptotic protease-activating factor 1 (Homo sapiens, UniProt O14727); assay: SAR analysis of small molecule Activators of Apaf-1 in a Fluorescent assay.; format: functional; details: read-out: EC50_Mean;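 further: caspase-3 cleavage of fluorogenic Rh110 DEVD substrate downstream of apoptosome activation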
T4 sequence (O14727 whole entry): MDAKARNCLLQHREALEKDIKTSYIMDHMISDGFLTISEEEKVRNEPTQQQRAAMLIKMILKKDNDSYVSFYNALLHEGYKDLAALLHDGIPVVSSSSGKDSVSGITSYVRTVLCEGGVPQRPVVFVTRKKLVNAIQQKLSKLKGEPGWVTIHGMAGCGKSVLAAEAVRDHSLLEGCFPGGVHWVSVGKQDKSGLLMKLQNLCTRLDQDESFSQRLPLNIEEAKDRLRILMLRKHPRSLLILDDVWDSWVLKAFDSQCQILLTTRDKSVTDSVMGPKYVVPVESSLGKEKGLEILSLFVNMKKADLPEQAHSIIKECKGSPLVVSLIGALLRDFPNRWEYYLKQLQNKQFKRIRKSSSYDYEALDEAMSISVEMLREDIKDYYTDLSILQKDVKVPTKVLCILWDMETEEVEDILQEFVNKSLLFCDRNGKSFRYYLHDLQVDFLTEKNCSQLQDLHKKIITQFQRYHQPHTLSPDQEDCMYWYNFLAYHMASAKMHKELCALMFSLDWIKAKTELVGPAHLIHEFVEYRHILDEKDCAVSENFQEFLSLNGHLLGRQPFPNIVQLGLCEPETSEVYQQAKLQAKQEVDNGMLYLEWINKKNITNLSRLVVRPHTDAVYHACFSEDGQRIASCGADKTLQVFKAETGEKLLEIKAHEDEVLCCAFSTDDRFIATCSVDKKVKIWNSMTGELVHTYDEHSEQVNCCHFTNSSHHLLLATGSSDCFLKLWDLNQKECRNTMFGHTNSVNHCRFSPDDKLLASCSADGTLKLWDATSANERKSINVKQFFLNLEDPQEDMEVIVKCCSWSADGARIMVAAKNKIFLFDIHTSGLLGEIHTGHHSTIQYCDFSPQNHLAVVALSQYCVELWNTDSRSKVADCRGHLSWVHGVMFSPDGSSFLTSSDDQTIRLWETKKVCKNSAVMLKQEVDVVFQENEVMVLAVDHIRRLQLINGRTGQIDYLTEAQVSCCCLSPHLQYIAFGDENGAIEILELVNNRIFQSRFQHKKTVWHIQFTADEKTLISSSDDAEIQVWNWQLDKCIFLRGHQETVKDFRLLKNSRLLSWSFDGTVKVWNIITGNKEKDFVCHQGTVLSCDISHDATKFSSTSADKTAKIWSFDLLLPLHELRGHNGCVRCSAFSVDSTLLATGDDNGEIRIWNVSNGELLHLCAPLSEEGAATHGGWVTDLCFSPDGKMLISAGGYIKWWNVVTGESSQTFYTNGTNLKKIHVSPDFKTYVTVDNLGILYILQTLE

[6] = molecular target: T5, Methionyl-tRNA synthetase, putative (Trypanosoma brucei brucei, UniProt Q38C91); format: functional, Trypanosoma brucei brucei strain 927/4 GUTat10.1
T5 sequence (Q38C91 whole entry): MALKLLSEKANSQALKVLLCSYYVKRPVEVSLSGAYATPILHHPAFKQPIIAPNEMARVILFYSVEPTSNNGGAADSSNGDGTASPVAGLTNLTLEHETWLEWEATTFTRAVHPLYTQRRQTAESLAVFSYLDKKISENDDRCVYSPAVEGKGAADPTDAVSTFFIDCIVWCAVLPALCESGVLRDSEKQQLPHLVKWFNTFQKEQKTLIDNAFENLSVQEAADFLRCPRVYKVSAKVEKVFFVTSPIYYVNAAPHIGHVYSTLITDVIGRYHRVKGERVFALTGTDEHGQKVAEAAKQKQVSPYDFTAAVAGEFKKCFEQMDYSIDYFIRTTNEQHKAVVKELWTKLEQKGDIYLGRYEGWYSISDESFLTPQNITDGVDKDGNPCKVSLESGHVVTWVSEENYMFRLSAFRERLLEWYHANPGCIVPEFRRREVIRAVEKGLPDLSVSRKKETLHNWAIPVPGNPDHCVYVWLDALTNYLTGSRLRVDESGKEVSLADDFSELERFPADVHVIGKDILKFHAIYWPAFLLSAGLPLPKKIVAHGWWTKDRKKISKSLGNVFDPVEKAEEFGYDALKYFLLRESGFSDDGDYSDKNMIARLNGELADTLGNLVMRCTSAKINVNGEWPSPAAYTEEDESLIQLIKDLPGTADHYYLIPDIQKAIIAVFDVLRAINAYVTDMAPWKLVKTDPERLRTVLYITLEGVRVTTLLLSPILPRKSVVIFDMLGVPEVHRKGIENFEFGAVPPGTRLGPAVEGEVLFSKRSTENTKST

[7] = Counterscreen for inhibitors of Trypanosoma brucei methionyl tRNA synthetase (MetRS): Luminescence-based cell-based high throughput dose response assay to identify compounds that are cytotoxic to Jurkat human T lymphocyte cells.; format: functional
[8] = molecular target: T5, Methionyl-tRNA synthetase, putative; format: functional, Trypanosoma brucei brucei strain 927/4 GUTat10.1; remark: listed apart in the source
[9] = molecular target: T6, Sentrin-specific protease 8 (Homo sapiens, UniProt Q96LD8); format: functional
T6 sequence (Q96LD8 whole entry): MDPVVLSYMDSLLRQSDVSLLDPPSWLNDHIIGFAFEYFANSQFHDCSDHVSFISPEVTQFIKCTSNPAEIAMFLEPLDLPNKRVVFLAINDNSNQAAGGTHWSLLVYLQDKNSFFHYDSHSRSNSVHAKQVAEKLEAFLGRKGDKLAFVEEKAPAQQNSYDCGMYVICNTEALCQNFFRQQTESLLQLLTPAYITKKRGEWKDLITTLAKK

[10] = molecular target: T6, Sentrin-specific protease 8; format: functional; remark: listed apart in the source
[11] = molecular target: T7, Ubiquitin-conjugating enzyme E2 N (Homo sapiens, UniProt P61088); format: functional;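 further: Dose-response confirmation in a TR-FRET assay detecting UBC13-driven polyubiquitin chain formation, inhibition measured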
T7 sequence (P61088 whole entry): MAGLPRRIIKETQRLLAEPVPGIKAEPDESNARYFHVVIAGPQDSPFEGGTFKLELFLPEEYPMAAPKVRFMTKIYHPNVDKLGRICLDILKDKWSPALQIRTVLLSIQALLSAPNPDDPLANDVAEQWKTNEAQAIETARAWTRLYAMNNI

For `CCn1cc(C(=O)O)c(=O)c2cc(F)c(N3CCN(C(=S)NC(=O)c4ccc(F)c(F)c4)CC3)cc21`, the IC50 [1] was 16.6 µM (active) and the AC50 (Escherichia coli) was 3.38 µM (active).

In the case of `CC(=O)c1cccc(OCC(=O)N(C)CC(=O)NCc2ccco2)c1`, the IC50 [2] was 6.09 µM (active).

For `CCOc1ccc(Cn2c3ccc(OC)cc3c3nc4ccccc4nc32)cc1`, the EC50 (Melanocortin receptor 4) was > 89.2 µM (inactive).

With `CCOc1ccc(-n2c(C)c(C(C)=O)c3cc(OC(C)=O)ccc32)cc1` the IC50 (Interleukin-8) was > 79 µM (inactive), the EC50 [3] was 24.6 µM (active) and the IC50 (H9c2) was 9.08 µM (active).

With `Cc1cc(C)c2sc(N(CCCN(C)C)C(=O)c3ccc(Br)s3)nc2c1` the EC50 (Melanocortin receptor 4) was > 89.2 µM (inactive).

In the case of `CC(C)COc1ccc(CC(=O)NO)cc1`, the IC50 [4] was 7.4 µM (active).

For `COC(=O)c1coc(-c2ccc(-c3ccccc3)cc2)n1`, the EC50 [5] was > 100 µM (inactive).

For `Cc1cc(C)n(CC(C)C(=O)Nc2ccc(Cl)c(Cl)c2)n1` (stereo not drawn), the EC50 [5] was > 100 µM (inactive).

For `O=C(Cc1ccc2c(c1)CCCC2)NO`, the IC50 [4] was 5.5 µM (active).

In the case of `O=C(CC(=O)Nc1cccc(Cl)c1)N/N=C\c1ccccc1`, the IC50 [6] was 3.94 µM (active), the IC50 [7] was 83.3 µM (inactive) and the IC50 [8] was 6.25 µM (active).

For `COc1cc2c(c(OC)c1OC)-c1ccc(O)c(=O)cc1[C@@H](N)CC2`, the IC50 [9] was 25.7 µM (active), the IC50 [10] was > 100 µM (inactive) and the IC50 [11] was > 20 µM (inactive).
